Columns and labels:
Pseudomonas = test: Antimicrobial activity against Pseudomonas at 5 ug/disk after 24 hr by disk diffusion method; assay type: functional; conditions: read-out: IZ
Klebsiella pneumoniae = test: Antimicrobial activity against Klebsiella pneumoniae at 5 ug/disk after 24 hr by disk diffusion method; conditions: read-out: IZ
Shigella flexneri = test: Antimicrobial activity against Shigella flexneri at 5 ug/disc after 24 hr by disk diffusion method; assay type: functional; conditions: read-out: IZ
Salmonella typhi = test: Antimicrobial activity against Salmonella enterica subsp. enterica serovar Typhi at 5 ug/disk after 24 hr by disk diffusion method; assay type: functional; conditions: read-out: IZ
Vibrio cholerae = test: Antimicrobial activity against Vibrio cholerae at 5 ug/disc after 24 hr by disk diffusion method; assay type: functional; conditions: read-out: IZ
Streptococcus = test: Antimicrobial activity against beta-hemolytic Streptococcus at 5 ug/disk after 24 hr by disk diffusion method; assay type: functional; conditions: read-out: IZ
Staphylococcus aureus = test: Antimicrobial activity against Staphylococcus aureus at 5 ug/disc after 24 hr by disk diffusion method; conditions: read-out: IZ
Nannizzia gypsea = test: Antimicrobial activity against Microsporum gypseum at 100 U/disk after 72 to 96 hr by disk diffusion method; assay type: functional
Rhizopus = test: Antimicrobial activity against Rhizopus at 100 U/disk after 72 to 96 hr by disk diffusion method; assay type: functional
Mucor = test: Antimicrobial activity against Mucor at 100 U/disk after 72 to 96 hr by disk diffusion method; assay type: functional
Aspergillus flavus = test: Antimicrobial activity against Aspergillus flavus at 100 U/disk after 72 to 96 hr by disk diffusion method; assay type: functional

| SMILES | zone of inhibition at 5 µg/disc (Pseudomonas) [mm] | zone of inhibition at 5 µg/disc (Klebsiella pneumoniae) [mm] | zone of inhibition at 5 µg/disc (Shigella flexneri) [mm] | zone of inhibition at 5 µg/disc (Salmonella typhi) [mm] | zone of inhibition at 5 µg/disc (Vibrio cholerae) [mm] | zone of inhibition at 5 µg/disc (Streptococcus) [mm] | zone of inhibition at 5 µg/disc (Staphylococcus aureus) [mm] | inhibition zone (IZ) (Nannizzia gypsea) [mm] | inhibition zone (IZ) (Rhizopus) [mm] | inhibition zone (IZ) (Mucor) [mm] | inhibition zone (IZ) (Aspergillus flavus) [mm] |
| --- | --- | --- | --- | --- | --- | --- | --- | --- | --- | --- | --- |
| O=C(O)c1cn(C2CC2)c2cc(N3CCNCC3)c(F)cc2c1=O [CIPROFLOXACIN] | 23 | 26 | 23 | 22 | 23 | 28 | 25 | – | – | – | – |
| OC(Cn1cncn1)(Cn1cncn1)c1ccc(F)cc1F [FLUCONAZOLE] | – | – | – | – | – | – | – | 20 | 20 | 20 | 20 |

Reference: ChEMBL document CHEMBL3045021, “Synthesis, antibacterial, and antifungal activities of biolabile (E)-1-(4-morpholinophenyl)-3-aryl-prop-2-en-1-ones” (2009)
